Inhibition data for 18 compounds are collected here from patent US10023565B2, “N,N′ substituted piperidinamine compounds, and preparation method and usage thereof” (Institute of Pharmacology and Toxicology Academy of …, priority 2013, dated 2018).

Holding throughout (assay): Antitumor bioactivity evaluation, breast cancer cells (ATPlite)
One test has as its system BT/Lap^R1.0. The test is classed as cell-based, human. Conditions: Homo sapiens; test sample 5 μM, 72 hours; read-out: Inhibitory Rate % BT/Lap^R1.0. The protocol:
(§1) Antitumor bioactivity evaluation of the compounds of Examples according to the method described below
(§2) Cells plating: a 100 mm culture dish with overgrown adherent cells was digested with 1 ml 0.25% trypsin (GIBCO) at 37° C. for 5 min, and the reaction was terminated with 2 ml culture medium (containing 10% FBS, GIBCO). The cells were scattered and collected, after counting, diluted to 1×10^5 cells/ml, and seeded into a 96-well plate at 50 μl/well, 5000 cells/well, excluding the peripheral circle of wells in which no cell was added, but PBS was added, 60 wells in total, and then incubated at 37° C. for 24 hours for adhering.
(§3) Addition of the compound and lapatinib: the test sample was diluted to a final concentration of 5 μM, and the culture medium with the corresponding compound solvent concentration was filled in the control well, the compound solvent concentration was kept consistent in each well, 5 parellel wells were set for each concentration, 25 μl each well, 25 μl culture medium (in combined group, 25 μl lapatinib was added till a final concentration of 1 μM) supplemented, followed by incubation at 37° C. for 72 hours.
(§4) Test after incubation at 37° C. for 72 hours: 50 μL of ATPlite kit substrate solution was added in each well, and vibrated for 3 min, followed by placing aside in darkness for 10 min, and then supernatant 100 μl/well was taken and placed on aluminescence test plate; the luminescence test plate that has been fully incubated was placed in a luminescence test instrument, to read luminescence value.
(§5) 1. Cell survival rate (%)=Experimental group RLU/control group RLU×100%. The experimental data were subjected to data analysis and processing by utilizing GraphPad software.

The next test deals with SK-BR3. In kind it is cell-based. As to conditions: Homo sapiens, SK-BR-3; test sample 5 μM, 72 hours; read-out: Inhibitory Rate % SK-BR3. The protocol:
as §1, §2, §3, §4, §5

The test system of the next test is MDA-MB-453. The test is classed as cell-based. Conditions: Homo sapiens, test sample 5 μM, 72 hours, read-out: Inhibitory Rate % MDA-MB-453. The protocol:
as §1, §2, §3, §4, §5

The subject of the next test is MDA-MB-361. The test is classed as cell-based. Conditions: Homo sapiens, test sample 5 μM, 72 hours, read-out: Inhibitory Rate % MDA-MB-361. The method, then: as §1, §2, §3, §4, §5
Another test deals with SK/Lap^R1.0. The test is classed as cell-based. Conditions: Homo sapiens; test sample 5 μM, 72 hours; read-out: Inhibitory Rate % SKLap^R1.0. The protocol: as §1, §2, §3, §4, §5
The subject of another test is BT474. The test is classed as cell-based. As to conditions: Homo sapiens, BT-474; test sample 5 μM, 72 hours; read-out: Inhibitory Rate % BT474. The method, then: as §1, §2, §3, §4, §5

Take `CSc1ncc(CN2CCC(N(C)Cc3ccc(Cl)cc3Cl)CC2)s1` [Example 33, N-methyl-N-(2,4-dichlorobenzyl)-N-{1-[(2-methylthiothiazol-5-yl)methyl]piperidin-4-yl}amine]: the inhibition at 5 µM with BT/Lap^R1.0 amounted to 66.3%; in the test with SK-BR3 it was 37.8%; in the test with MDA-MB-453 it was 72.4%; with MDA-MB-361 it was 36.3%; with SK/Lap^R1.0 it was 40.4%; with BT474 it was 70%.

With `CSc1ncc(CN2CCC(N(C)Cc3cc(Cl)ccc3Cl)CC2)s1` [Example 34, N-methyl-N-(2,5-dichlorobenzyl)-N-{1-[(2-methylthiothiazol-5-yl)methyl]piperidin-4-yl}amine], the inhibition at 5 µM in the test with BT/Lap^R1.0 turned out to be 34.4%; in the test with SK-BR3, 23.3%; with MDA-MB-453, 59.4%; in the test with MDA-MB-361, 25.4%; with SK/Lap^R1.0, 11.4%; with BT474, 42.3%.

Turning to `CSc1nccc(N2CCC(N(C)Cc3ccc(Cl)c(Cl)c3)CC2)n1` [Example 38, N-methyl-N-(3,4-dichlorobenzyl)-N-[1-(2-methylthiopyrimidin-4-yl)piperidin-4-yl]amine], the inhibition at 5 µM with BT/Lap^R1.0 came out at 29.9%; in the test on SK-BR3, 30.1%; with MDA-MB-453, 60%; in the test with MDA-MB-361, 29.5%; with SK/Lap^R1.0 it was 12.9%; in the test on BT474, 39.5%.

`CSc1nccc(N2CCC(N(C)Cc3cccc(Cl)c3)CC2)n1` [Example 39, N-methyl-N-(3-chlorobenzyl)-N-[1-(2-methylthiopyrimidin-4-yl)piperidin-4-yl]amine]: the inhibition at 5 µM in the test with BT/Lap^R1.0 was found to be 25.1%; with SK-BR3, 26.4%; with MDA-MB-453, 65.7%; in the test with MDA-MB-361 it was 39.1%; in the test with SK/Lap^R1.0, 24.4%; in the test on BT474, 35.1%.

`CSc1nccc(N2CCC(N(C)Cc3ccccc3C#N)CC2)n1` [Example 41, N-methyl-N-(2-cyanobenzyl)-N-[1-(2-methylthiopyrimidin-4-yl)piperidin-4-yl]amine]: the inhibition at 5 µM in the test on BT/Lap^R1.0 is 65.8%; with SK-BR3, 38.9%; in the test on MDA-MB-453, 66.6%; with MDA-MB-361, 55.7%; in the test on SK/Lap^R1.0, 42%; in the test on BT474, 69.2%.

For the compound `CSc1nccc(N2CCC(N(C)Cc3ccc(C)cc3)CC2)n1` [Example 42, N-methyl-N-(4-methylbenzyl)-N-[1-(2-methylthiopyrimidin-4-yl)piperidin-4-yl]amine], the inhibition at 5 µM was found to be 28.6% with BT/Lap^R1.0; 41.4% with SK-BR3; 60.8% in the test with MDA-MB-453; 45.1% with MDA-MB-361; 35.8% in the test with SK/Lap^R1.0; 36.7% in the test with BT474.

As to `COc1nccc(N2CCC(N(C)Cc3ccccc3Cl)CC2)n1` [Example 43, N-methyl-N-(2-chlorobenzyl)-N-[1-(2-methoxypyrimidin-4-yl)piperidin-4-yl]amine], the inhibition at 5 µM in the test on BT/Lap^R1.0 stood at 56.9%; with SK-BR3, 19.3%; with MDA-MB-453, 69.3%; with MDA-MB-361, 45.7%; in the test on SK/Lap^R1.0 it was 29.4%; in the test with BT474 it was 61%.

For the compound `CSc1nccc(N2CCC(N(C)Cc3cc(Cl)ccc3Cl)CC2)n1` [Example 44, N-methyl-N-(2,5-dichlorobenzyl)-N-[1-(2-methylthiopyrimidin-4-yl)piperidin-4-yl]amine], the inhibition at 5 µM is 63.9% in the test with BT/Lap^R1.0; 32.6% with SK-BR3; 66.2% with MDA-MB-453; 50.4% in the test with MDA-MB-361; 35.2% in the test with SK/Lap^R1.0; 67.1% with BT474.

In the case of `CSc1nccc(N2CCC(N(C)Cc3cccc(F)c3)CC2)n1` [Example 45, N-methyl-N-(3-fluorobenzyl)-N-[1-(2-methylthiopyrimidin-4-yl)piperidin-4-yl]amine], the inhibition at 5 µM is 17.5% in the test with BT/Lap^R1.0; 22.2% in the test on SK-BR3; 45.3% in the test with MDA-MB-453; 36.2% in the test with MDA-MB-361; 34.2% in the test on SK/Lap^R1.0; 21.3% in the test with BT474.

For the compound `CNC1CCN(c2nccc(OC)n2)CC1` [Example 46, N-methyl-N-[1-(4-methoxypyrimidin-2-yl)piperidin-4-yl]amine], the inhibition at 5 µM with BT/Lap^R1.0 came out at 70%; in the test on SK-BR3, 85.9%; with MDA-MB-453 it was 79.2%; in the test with MDA-MB-361, 53.2%; with SK/Lap^R1.0 it was 71%; in the test with BT474, 73.1%.

For `COc1nccc(N2CCC(N(C)Cc3ccc(C#N)cc3)CC2)n1` [Example 48, N-methyl-N-(4-cyanobenzyl)-N-[1-(2-methoxypyrimidin-4-yl)piperidin-4-yl]amine], the inhibition at 5 µM with BT/Lap^R1.0 is 72.7%; in the test with SK-BR3 it was 86.5%; in the test with MDA-MB-453, 79.5%; with MDA-MB-361, 53.3%; in the test with SK/Lap^R1.0, 74.3%; with BT474, 71.6%.

Consider `COc1nccc(N2CCC(N(C)Cc3ccccc3C#N)CC2)n1` [Example 50, N-methyl-N-(2-cyanobenzyl)-N-[1-(2-methoxypyrimidin-4-yl)piperidin-4-yl]amine], for which the inhibition at 5 µM was determined as 22.7% with BT/Lap^R1.0; 24.7% with SK-BR3; 50.6% with MDA-MB-453; 22% with MDA-MB-361; 11.7% in the test with SK/Lap^R1.0; 27.5% in the test with BT474.

`COc1nccc(N2CCC(N(C)Cc3ccc(C)cc3)CC2)n1` [Example 51, N-methyl-N-(4-methylbenzyl)-N-[1-(2-methoxypyrimidin-4-yl)piperidin-4-yl]amine]: the inhibition at 5 µM was determined as 65.2% in the test with BT/Lap^R1.0; 34.5% in the test on SK-BR3; 70.5% in the test with MDA-MB-453; 45.7% in the test on MDA-MB-361; 22.4% in the test on SK/Lap^R1.0; 65.6% with BT474.

Consider `COc1nccc(N2CCC(N(C)Cc3cc(Cl)ccc3Cl)CC2)n1` [Example 52, N-methyl-N-(2,5-dichlorobenzyl)-N-[1-(2-methoxypyrimidin-4-yl)piperidin-4-yl]amine], for which the inhibition at 5 µM in the test with BT/Lap^R1.0 amounted to 68.1%; with SK-BR3, 87.6%; in the test with MDA-MB-453, 68.7%; in the test with MDA-MB-361, 64.1%; in the test with SK/Lap^R1.0, 80.7%; with BT474 it was 74.2%.

Consider `COc1nccc(N2CCC(N(C)Cc3ccc(Cl)c(Cl)c3)CC2)n1` [Example 53, N-methyl-N-(3,4-dichlorobenzyl)-N-[1-(2-methoxypyrimidin-4-yl)piperidin-4-yl]amine], for which the inhibition at 5 µM is 35.8% in the test with BT/Lap^R1.0; 27.7% in the test with SK-BR3; 60.2% in the test on MDA-MB-453; 41.7% with MDA-MB-361; 16.8% in the test with SK/Lap^R1.0; 52.9% with BT474.

`COc1nccc(N2CCC(N(C)Cc3c(F)cccc3Cl)CC2)n1` [Example 54, N-methyl-N-(2-fluoro-6-chlorobenzyl)-N-[1-(2-methoxypyrimidin-4-yl)piperidin-4-yl]amine]: the inhibition at 5 µM in the test on BT/Lap^R1.0 came out at 62.4%; in the test on SK-BR3 it was 27.7%; with MDA-MB-453, 64.7%; in the test on MDA-MB-361, 48.3%; with SK/Lap^R1.0, 17.2%; in the test on BT474, 65.4%.

On to `COc1nccc(N2CCC(N(C)Cc3cccc(Cl)c3)CC2)n1` [Example 55, N-methyl-N-(3-chlorobenzyl)-N-[1-(2-methoxypyrimidin-4-yl)piperidin-4-yl]amine], for which the inhibition at 5 µM in the test on BT/Lap^R1.0 turned out to be 26.2%; in the test on SK-BR3 it was 18.5%; in the test on MDA-MB-453 it was 56.7%; in the test on MDA-MB-361, 23.2%; with SK/Lap^R1.0 it was 15.1%; in the test with BT474, 36.2%.

Consider `COc1nccc(N2CCC(N(C)Cc3cccc(F)c3)CC2)n1` [Example 56, N-methyl-N-(3-fluorobenzyl)-N-[1-(2-methoxypyrimidin-4-yl)piperidin-4-yl]amine], for which the inhibition at 5 µM is 10.5% with BT/Lap^R1.0; 9.2% in the test on SK-BR3; 27.9% in the test with MDA-MB-453; 8.5% in the test on MDA-MB-361; 3.9% in the test on SK/Lap^R1.0; 9.9% with BT474.
